The subject of series [1] is HFD-fed mice. Description: Morris water maze (MWM) in HFD mice. It counts as in vivo. The following applies: i.p., both doses 20 and 40 mg/kg/day, 20 days. The procedure:
The MWM test was conducted to evaluate memory and spatial learning in mice, using visual cues placed on the walls of a water tank. For five consecutive days, the mice were trained in the water maze, with each session involving the release of the mice from various starting points and the task of locating a hidden platform within the maze. Each day, the mice underwent four trials, following the established protocol by Charles V. Vorhees (2006). The time taken (latency) for each mouse to find the platform was measured and recorded throughout the training period.
On the sixth day, a probe test was conducted to assess reference memory. The hidden platform was removed, and the mice’s behavior was observed as they navigated the maze. The time spent in the target quadrant and the time taken to reach the former platform location were recorded. This probing phase aimed to evaluate the mice’s retention of the spatial information and memory acquired during the training sessions. The MWM test evaluated memory and spatial learning in mice using visual cues in a water tank. Over five days, mice were trained to find a platform within the tank, undergoing four trials daily as per Charles V. Vorhees' protocol. On day six, a probing experiment assessed reference memory. […] Time spent and latency to reach the target quadrant were recorded. […]

Series [2] in a line: MTT cell toxicity assay in HEK293T cells. The format is cell-based. The following applies: human, all doses (25 to 100 μM). The procedure: HEK293T, HepG2, and N2A cells were used in the study representing kidney, liver and neuronal cell lines respectively. The cells were cultured in DMEM supplemented with 10% fetal bovine serum and antibiotics at 37°C under 5% CO2. The cells were tested negative for mycoplasma.
To evaluate the compound toxicity for the Cdk5 inhibitors, an MTT assay was performed in HEK293T, HepG2, and N2A cells at varying concentrations. Six hours after cell seeding, the compounds were added in different amounts, and the cells were harvested after 24 h for further analysis. N2A cells were transfected using Lipofectamine-3000 reagent, co-transfecting with plasmids encoding Cdk5/p35 and Cdk5/p25 for 12 h, followed by inhibitor treatment to assess their effects in the cell culture system. The concentrations of each plasmids used was 1 μg, total of 3 μg per well for 6 well plates.

The test system of series [3] is HFD-fed mice. Description: Body weight in HFD-fed T2D mice. It counts as in vivo. The following applies: i.p. The procedure: The HFD-fed mice model received intraperitoneal injections of the compounds BLINK11 and BLINK15 at doses of 20 mg/kg/day and 40 mg/kg/day for a total of 20 days in the third month of HFD feeding. The body weight was measured at the beginning of the drug therapy, on day 0, and then again on days 10 and 20, as indicated in Figure 4A.
Two groups of four-week-old male C57BL/6J mice were established. One group (n = 8) was fed a standard laboratory mouse chow diet (Protein: 20% kcal, Carbohydrate: 70% kcal, Fat: 10% kcal), while the other group (n = 40) was placed on a HFD (Protein: 20% kcal, Carbohydrate: 20% kcal, Fat: 60% kcal).[23] Body weight, ITT, and GTT were assessed. Mice were treated with BLINK11 and BLINK15 inhibitors at 20 mg/kg and 40 mg/kg doses for 20 days. The study included six groups: Control, HFD, HFD_BLINK11_20, HFD_BLINK11_40, HFD_BLINK15_20, and HFD_BLINK15_40. […] The control used in the study are vehicle treated-control group (5% DMSO, 0.1% tween 20 and 1X PBS). The doses of 20 mg/kg and 40 mg/kg body weight were selected based on evidence from previous studies evaluating the efficacy and safety of similar kinase inhibitors.[45]^,[46]^,[47] […] The 40 mg/kg dose was selected to assess dose-dependent efficacy and represents the upper limit of tolerability based on pharmacokinetic and toxicity data.

Series [4] can be described thus: LC-MS of brain lysate and serum after intraperitoneal injection in HFD mouse model. It counts as in vivo. The note with it: C57BL/6J, ip, HFD mice, LC-MS peak area in brain lysate compared to serum. How it is done:
To assess the BBB penetrability of BLINK11 and BLINK15 in the high-fat diet (HFD) mouse model, intraperitoneal injections were administered, and liquid chromatography-mass spectrometry (LC-MS) analysis was conducted on both brain lysate and serum samples (Figure 3). The LC-MS results depicted in Figures 3A and 3B showcase the peaks corresponding to the BLINK11 compound in the brain lysate and serum, respectively. Similarly, Figures 3C and 3D illustrate the peaks associated with the BLINK15 compound in the brain lysate and serum, respectively. […] These analyses provide a quantitative measure of the presence of the compounds in the respective samples. Furthermore, to ascertain the relative distribution of BLINK11 and BLINK15 in the brain compared to serum, the percentages of each compound present in the brain were calculated and plotted in a bar graph (Figure 3G). […]
Metabolites, comprising the entire spectrum within the lysate excluding proteins but inclusive of drugs, were extracted from plasma and brain tissue homogenate samples. […] Compounds were analyzed in these samples using a multiple reaction monitoring method (using parameters mentioned in Table S5) on a triple quadrupole hybrid ion trap mass spectrometer (QTRAP 6500+, SCIEX) coupled with an ExionLC UHPLC system (SCIEX). […] Relative quantification was performed using MultiQuantTM software v.3.0 (SCIEX). […]

SMILES strings stand for the structures.

On to `O=C(COc1ccccc1C(=O)Nc1cccc(Cl)c1Cl)Nc1ccc(N2CCOCC2)c(Cl)c1` [BLINK11, 2-(2-((3-chloro-4-morpholinophenyl)amino)-2-oxoethoxy)-N-(2,3-dichlorophenyl)benzamide], for which the “Water maze time to reach the platform (spatial learning and memory)” value with HFD-fed mice [1] is on record as “rescue behavior”. Further, in series [2], the viability at 24 h was > 50%. Also, the “Body weight gain caused by HFD” value in the series on HFD-fed mice [3] (both dosages 20 and 40 mg/kg/day, 20 days) was “rescued from the gain in body weight”. The compound also displayed a Kp in series [4] of 0.38.
Regarding `COc1ccc(C(=O)C[C@@]2(O)C(=O)N(Cc3ccccc3)c3ccc(Br)cc32)cc1[N+](=O)[O-]` [BLINK15], the “Water maze time to reach the platform (spatial learning and memory)” value in the series on HFD-fed mice [1] is on record as “rescue behavior”. In addition, the viability at 24 h in series [2] is > 50%. Also, the “Body weight gain caused by HFD” value in the series on HFD-fed mice [3] (40 mg/kg/day, 20 days (only the higher dose)) is reported as “significant recovery”. In series [4], this compound had a Kp of 0.11.

In general, viability refers to a per cent measure of how many cells are alive, often set against a control. A low value points to more harm to the cells. The term Kp denotes tissue or fluid exposure divided by exposure in the circulation.

Values taken from paper PMC11986975, “A Cdk5 inhibitor restores cognitive function and alleviates type 2 diabetes in mice” (iScience, 2025).
